This note sets out measurements from patent US20240182481A1 (Tango Therapeutics, Inc., priority 2021, published 2024).

Assay [1] deals with USP1-UAF1 (Homo sapiens, UniProt O94782). As to the kind of experiment: Ubiquitin Rhodamine assay for USP1-UAF1 activity. In kind it is biochemical. Here is the method: Certain compounds of the disclosure were assessed for USP1-UAF1 activity in a Ubiquitin Rhodamine assay as described in Example 135.
Assay [2] relates to MDA-MB-436 (BRCA1 mutant) cell line. As to the kind of experiment: Viability assay in BRCA1 mutant cell line MDA-MB-436. As to conditions: Homo sapiens, MDA-MB-436, viability, BRCA1 mutant MDA-MB-436; read-out: MDA-MB-436 rel IC50. It is filed as cell-based. An excerpt: (§1) Table 1 also indicates IC50 values in a viability assay for a non-isogenic pair of BRCA1 mutant (column 5—MDA-MB-436) and BRCA1 WT (column 6—HCC1954) cell lines. These values indicate the effect of treatment with compound on cell survival.

Assay [3] deals with HCC1954 (BRCA1 WT) cell line. As to the kind of experiment: Viability assay in BRCA1 WT cell line HCC1954. As to conditions: Homo sapiens, read-out: HCC 1954 IC50 rel IC50. In kind it is cell-based.
Text: as §1

For assay [4], the system named is monoubiquitinated PCNA. As to the kind of experiment: AlphaLISA assay measuring monoubiquitinated PCNA in MDA-MB-436. Particulars: Homo sapiens, read-out: Alpha LISA IC50. In kind it is cell-based. An excerpt: Table 1 also indicates IC50 values for exemplary compounds in an AlphaLISA assay measuring monoubiquitinated PCNA in a BRCA1 mutant cell line (MDA-MB-436; column 7).
For orientation: Alpha assays give light when donor and acceptor beads are brought close together.

Sequence of USP1-UAF1 (O94782 whole entry): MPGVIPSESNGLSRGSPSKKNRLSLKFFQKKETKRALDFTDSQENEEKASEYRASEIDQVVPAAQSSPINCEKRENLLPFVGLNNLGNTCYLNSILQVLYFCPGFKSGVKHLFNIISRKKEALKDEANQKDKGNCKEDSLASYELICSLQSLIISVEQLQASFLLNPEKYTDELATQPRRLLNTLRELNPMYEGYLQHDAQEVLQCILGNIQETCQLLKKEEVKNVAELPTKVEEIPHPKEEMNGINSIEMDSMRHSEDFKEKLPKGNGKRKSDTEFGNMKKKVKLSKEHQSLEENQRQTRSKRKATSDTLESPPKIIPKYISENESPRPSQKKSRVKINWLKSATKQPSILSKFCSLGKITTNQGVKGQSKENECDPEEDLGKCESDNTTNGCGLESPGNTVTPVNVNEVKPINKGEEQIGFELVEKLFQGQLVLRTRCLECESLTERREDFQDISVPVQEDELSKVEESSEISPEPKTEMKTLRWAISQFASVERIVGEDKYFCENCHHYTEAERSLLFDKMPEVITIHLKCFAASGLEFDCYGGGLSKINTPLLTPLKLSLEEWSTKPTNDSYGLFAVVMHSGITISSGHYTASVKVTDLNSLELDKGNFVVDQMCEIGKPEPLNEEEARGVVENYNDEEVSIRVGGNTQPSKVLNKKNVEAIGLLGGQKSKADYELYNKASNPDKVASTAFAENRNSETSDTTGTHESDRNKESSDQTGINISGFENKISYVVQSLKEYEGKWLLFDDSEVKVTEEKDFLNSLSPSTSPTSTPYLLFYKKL
Sequence of USP1-UAF1 (Q8TAF3 whole entry partner): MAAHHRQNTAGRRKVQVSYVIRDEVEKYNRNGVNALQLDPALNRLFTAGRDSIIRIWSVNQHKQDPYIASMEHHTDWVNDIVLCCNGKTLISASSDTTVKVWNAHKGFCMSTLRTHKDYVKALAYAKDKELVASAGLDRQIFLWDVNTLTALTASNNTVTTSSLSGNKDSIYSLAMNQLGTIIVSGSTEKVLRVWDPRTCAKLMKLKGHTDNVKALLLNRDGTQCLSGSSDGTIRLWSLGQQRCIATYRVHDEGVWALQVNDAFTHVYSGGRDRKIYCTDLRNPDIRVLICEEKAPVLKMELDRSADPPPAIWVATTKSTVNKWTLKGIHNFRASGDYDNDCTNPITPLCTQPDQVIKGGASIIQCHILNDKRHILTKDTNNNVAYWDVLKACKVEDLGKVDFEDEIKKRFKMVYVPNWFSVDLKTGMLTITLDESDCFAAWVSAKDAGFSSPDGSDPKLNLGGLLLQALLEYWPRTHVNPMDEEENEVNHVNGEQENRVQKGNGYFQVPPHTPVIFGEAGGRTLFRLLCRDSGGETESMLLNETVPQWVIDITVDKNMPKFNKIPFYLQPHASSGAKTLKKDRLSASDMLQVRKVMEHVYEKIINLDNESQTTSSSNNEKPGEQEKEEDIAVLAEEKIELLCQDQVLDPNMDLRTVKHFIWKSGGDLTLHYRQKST

Consider `Cn1cc(C(F)(F)F)nc1-c1ccc(Cc2c[nH]c3cnc(-c4cccnc4C4CC4)nc23)cc1` [Compound 60, 2-(2-cyclopropyl-3-pyridyl)-7-[[4-[1-methyl-4-(trifluoromethyl)imidazol-2-yl]phenyl]methyl]-5H-pyrrolo[3,2-d]pyrimidine], for which the IC50 (commonly the concentration at which inhibition is half-maximal) is below 30 nM in assay [1], below 100 nM in assay [2], at least 10000 nM in assay [3] and below 100 nM in assay [4].

For `C[C@@H](Oc1ncccc1-c1ncc2[nH]cc(Cc3ccc(-c4nc(C(F)(F)F)cn4C)cc3)c2n1)C(F)(F)F` (single isomer, unassigned) [Compound 21], the IC50 in assay [1] was below 30 nM; in assay [2] it was below 100 nM; in assay [3] it was 250 to 10000 nM; in assay [4], below 100 nM.

Consider `Cn1cc(C(F)(F)F)nc1-c1ccc(Cc2c[nH]c3cnc(-c4c(Cl)ccnc4C4CC4)nc23)cc1` [Compound 150, 2-(4-chloro-2-cyclopropylpyridin-3-yl)-7-(4-(1-methyl-4-(trifluoromethyl)-1H-imidazol-2-yl)benzyl)-5H-pyrrolo[3,2-d]pyrimidine], for which the 50% inhibitory concentration (IC50) in assay [1] is below 30 nM; in assay [2], below 100 nM; in assay [3] it was 250 to 10000 nM; in assay [4] it was below 100 nM.

Take `COc1ncnc(C2CC2)c1-c1ncc2[nH]c(C)c(Cc3ccc(-c4nc(C(F)(F)F)cn4C)cc3)c2n1` [Compound 188]: the IC50 in assay [1] is below 30 nM; in assay [2], below 100 nM; in assay [3], at least 10000 nM; in assay [4], below 100 nM.

In the case of `COc1ncnc(C2CC2)c1-c1nc(F)c2[nH]cc(Cc3ccc(-c4nc(C(F)(F)F)cn4C)cc3)c2n1` [Compound 110], the IC50 in assay [1] was below 30 nM; in assay [2], 100 to 250 nM; in assay [3], at least 10000 nM; in assay [4], 250 to 10000 nM.

Regarding `COc1ncnc(C2CC2)c1-c1ncc2[nH]cc(Oc3ccc(-c4nc(C(F)(F)F)cn4C)cc3)c2n1` [Compound 69, 2-(4-cyclopropyl-6-methoxy-pyrimidin-5-yl)-7-[4-[1-methyl-4-(trifluoromethyl)imidazol-2-yl]phenoxy]-5H-pyrrolo[3,2-d]pyrimidine], the half-inhibitory concentration (IC50) in assay [1] was 100 to 10000 nM; in assay [2], 250 to 10000 nM; in assay [3], at least 10000 nM; in assay [4], 250 to 10000 nM.

In the case of `COc1ncnc(C2CC2)c1-c1ncc2c(n1)c(Cc1ccc(-n3nc(C#N)cc3C)cc1)cn2C` [Compound 107, 1-[4-[[2-(4-cyclopropyl-6-methoxy-pyrimidin-5-yl)-5-methyl-pyrrolo[3,2-d]pyrimidin-7-yl]methyl]phenyl]-5-methyl-pyrazole-3-carbonitrile], the IC50 is 30 to 100 nM in assay [1], below 100 nM in assay [2], at least 10000 nM in assay [3] and below 100 nM in assay [4].

On to `COc1ncnc(C2CC2)c1-c1nc(C)c2[nH]nc(Cc3ccc(-c4nc(C(F)(F)F)cn4C)cc3)c2n1` [Compound 115, 5-(4-cyclopropyl-6-methoxypyrimidin-5-yl)-7-methyl-3-(4-(1-methyl-4-(trifluoromethyl)-1H-imidazol-2-yl)benzyl)-1H-pyrazolo[4,3-d]pyrimidine], for which the IC50 in assay [1] was below 30 nM; in assay [2] it was below 100 nM; in assay [3] it was at least 10000 nM; in assay [4] it was below 100 nM.

With `COc1ncnc(C2CC2)c1-c1ncc2nn(S(C)(=O)=O)c(Cc3ccc(-c4nc(C(F)(F)F)cn4C)cc3)c2n1` [Compound 164, 5-(4-cyclopropyl-6-methoxy-pyrimidin-5-yl)-2-methylsulfonyl-3-[[4-[1-methyl-4-(trifluoromethyl)imidazol-2-yl]phenyl]methyl]pyrazolo[4,3-d]pyrimidine], the 50% inhibitory concentration (IC50) in assay [1] is 30 to 100 nM; in assay [2], below 100 nM; in assay [3] it was at least 10000 nM; in assay [4], below 100 nM.

Turning to `CC(C)c1ccccc1-c1ncc2[nH]cc([C@H](C)c3ccc(-c4nc(C(F)(F)F)cn4C)cc3)c2n1` (single isomer, unassigned) [Compound 64], the IC50 in assay [1] is below 30 nM; in assay [2], below 100 nM; in assay [3], 250 to 10000 nM; in assay [4], below 100 nM.
